Experiments:
[1] = system: Wnt/β-catenin signaling (β-catenin activity) in HEK293 cell line; experiment: Cell-based Wnt agonist screening, TCF luciferase reporter, HEK293 (TCF-FL); set-up: species or system human; settings: Homo sapiens, HEK293, 24 h, % of LiCl (20 mM), 24 h, read-out: Max. Activity (%); for Emax at 30 µM: Conc. 30 μM; for Emax at 120 µM: Conc. 120 μM; for Emax at 15 µM: Conc. 15 μM
Source text: (§1) In order to measure the in vitro activity of compounds of the present invention, two human cancer cell lines, HEK293 and SW480, which have intact Wnt signaling and show APC gene mutation in the Wnt signaling pathway, respectively, were used.
(§2) For evaluating the activity of wnt/β-catenin signaling in the cancer cell lines, gene as illustrated in FIG. 1 having β-catenin-binding sites of the Tcf/Lef transcriptional control protein (5 sites of TCF, 5X TCF) and having a fire fly luficerase as a marker protein ascertainable the activity of 5X TCF was introduced into the cells. Treatment with G418 led monoclones of the cell lines, in which the genes were permanently expressed, so as to construct a cell-based Wnt agonist screening system. […] For comparison with the activity of the isoxazole derivatives as Wnt agonists, lithium chloride (LiCl), acting as a positive control for the cell-based Wnt agonist screening system, was used to determine the expression level of the luciferase, and the results are shown in FIG. 3.
(§3) The cell lines, in which a cell-based Wnt agonist screening system was constructed, were cultured in RPMI 1640 media supplemented with penicillin-streptomycin (100 Units/mL) and heat-inactivated 5% fetal bovine serum under standard culture conditions (5% CO2, 37° C., 100% relative humidity). […] The suspension was diluted with the same medium to adjust the cell count to 8,000˜15,000 cells per well and was moved then in a 96-well microtiter plate. After being incubated for 24 hrs, the cells were treated with various concentrations of the isoxazole derivatives synthesized in Preparation Examples. Incubation for an additional 24 hours was followed by the quantitative analysis of luciferase activity using a Luciferase Assay kit (Promega, U.S.A.) according to the protocol described in the manual provided by the manufacturer. Data on the activities of the isoxazole derivatives thus synthesized are given in Tables 34 to 43, and are expressed as percentages relative to the activity of the positive control LiCl (20 mM), a well-known agonist of Wnt signaling.

[2] = system: Wnt/β-catenin signaling (β-catenin activity) in SW480 cell line; experiment: Cell-based Wnt agonist screening, TCF luciferase reporter, SW480 (TCF-FL); set-up: species or system human; settings: Homo sapiens, % of LiCl (20 mM), 24 h, read-out: Max. Activity (%); for Emax at 30 µM: Con. 30 μM; for Emax at 120 µM: Con. 120 μM; for Emax at 60 µM: Con. 60 μM
Source text: as §1, §2, §3

Structure (SMILES)	Emax at 30 µM [1] [%]	Emax at 30 µM [2] [%]	Emax at 120 µM [2] [%]	also measured
O=C(NCc1cccnc1)c1cc(-c2ccco2)on1 [Derivative (8), 5-furan-2-yl-isoxazole-3-carboxylic acid (pyridin-3-ylmethyl)-amide]	< 20	< 20		
O=C(NCCCn1ccnc1)c1cc(-c2ccccc2[N+](=O)[O-])on1 [Derivative (112), 5-(2-nitro-phenyl)-isoxazole-3-carboxylic acid (3-imidazol-1-yl-propyl)-amide]			51	Emax at 120 µM [1]: 51%
O=C(NCCCn1cnc(Br)c1)c1cc(-c2ccco2)on1 [Derivative (60), 5-furan-2-yl-isoxazole-3-carboxylic acid [3-(4-bromo-imidazol-1-yl)-propyl]-amide]	< 20	196		
O=C(NCCc1ccc2c(c1)OCO2)c1cc(-c2ccco2)on1 [Derivative (29), 5-furan-2-yl-isoxazole-3-carboxylic acid (2-benzo[1,3]dioxol-5-yl-ethyl)-amide]	< 20	< 20		
Cc1ccccc1-c1cc(C(=O)NCCCn2ccnc2)no1 [Derivative (78), 5-o-tolyl-isoxazole-3-carboxylic acid (3-imidazol-1-yl-propyl)-amide]			42	Emax at 120 µM [1]: 42%
Cc1ccc(-c2cc(C(=O)NCCCn3ccnc3)no2)cc1 [Derivative (80), 5-p-tolyl-isoxazole-3-carboxylic acid (3-imidazol-1-yl-propyl)-amide]			58	Emax at 120 µM [1]: 58%
Cc1c(C(=O)NCCCn2ccnc2)noc1-c1ccco1 [Derivative (65), 5-furan-2-yl-4-methyl-isoxazole-3-carboxylic acid (3-imidazol-1-yl-propyl)-amide]	< 20	< 20		
O=C(NCCc1cccnc1)c1cc(-c2cccc(O)c2)on1 [Derivative (110), 5-(3-hydroxy-phenyl)-isoxazole-3-carboxylic acid (2-pyridin-3-yl-ethyl)-amide]	< 20	< 20		
O=C(O)c1ccc(CCNC(=O)c2cc(-c3ccco3)on2)cc1 [Derivative (32), 4-{2-[(5-furan-2-yl-isoxazole-3-carbonyl)-amino]-ethyl}-benzoic acid]			789	Emax at 120 µM [1]: 52%
COc1cccc(-c2cc(C(=O)NCCCn3ccnc3)no2)c1 [Derivative (100), 5-(3-methoxy-phenyl)-isoxazole-3-carboxylic acid (3-imidazol-1-yl-propyl)-amide]			59	Emax at 120 µM [1]: 59%
Cc1cccc(-c2cc(C(=O)NCCCn3ccnc3)no2)c1 [Derivative (79), 5-m-tolyl-isoxazole-3-carboxylic acid (3-imidazol-1-yl-propyl)-amide]				Emax at 10 µM ([1]; Conc. 10 μM): 48%; Emax at 10 µM ([2]; Con. 10 μM): 48%
O=C(NCCn1cncn1)c1cc(-c2ccc(F)cc2)on1 [Derivative (88), 5-(4-fluoro-phenyl)-isoxazole-3-carboxylic acid (2-[1,2,4]triazol-1-yl-ethyl)-amide]			600	Emax at 120 µM [1]: 600%
O=C(NCCCn1ccnc1)c1cc(-c2cccc([N+](=O)[O-])c2)on1 [Derivative (113), 5-(3-nitro-phenyl)-isoxazole-3-carboxylic acid (3-imidazol-1-yl-propyl)-amide]			46	Emax at 120 µM [1]: 46%
COC(=O)c1cn(CCCNC(=O)c2cc(-c3ccco3)on2)cn1 [Derivative (58), 1-{3-[(5-furan-2-yl-isoxazole-3-carbonyl)-amino]-propyl}-1H-imidazole-4-carboxylic acid methyl ester]	< 20	270		
O=C(NCCCn1ccnc1)c1cc(-c2cccnc2)on1 [Derivative (76), 5-pyridin-3-yl-isoxazole-3-carboxylic acid (3-imidazol-1-yl-propyl)-amide]	< 20	< 20		
O=C(NCCCn1ccnc1)c1cc(-c2ccc(O)cc2)on1 [Derivative (107), 5-(4-hydroxy-phenyl)-isoxazole-3-carboxylic acid (3-imidazol-1-yl-propyl)-amide]	28			Emax at 60 µM ([1]; Conc. 60 μM): 584%; Emax at 60 µM [2]: 584%
O=C(NCCCn1ccnc1)c1cc(-c2cccc(O)c2)on1 [Derivative (106), 5-(3-hydroxy-phenyl)-isoxazole-3-carboxylic acid (3-imidazol-1-yl-propyl)-amide]	277	277		Emax at 7.5 µM ([1]; Conc. 7.5 μM): 29%
Cc1cncn1CCCNC(=O)c1cc(-c2ccco2)on1 [Derivative (57), 5-furan-2-yl-isoxazole-3-carboxylic acid [3-(5-methyl-imidazol-1-yl)-propyl]amide]	< 20	< 20		
COc1cccc(CCNC(=O)c2cc(-c3ccco3)on2)c1 [Derivative (20), 5-furan-2-yl-isoxazole-3-carboxylic acid [2-(3-methoxy-phenyl)-ethyl]-amide]	< 20			Emax at 60 µM [2]: 528%
O=C(NCc1ccccc1)c1cc(-c2ccco2)on1 [Derivative (4), 5-furan-2-yl-isoxazole-3-carboxylic acid benzylamide]	< 20	< 20		
O=C(NCCc1ccccc1)c1cc(-c2ccco2)on1 [Derivative (5), 5-furan-2-yl-isoxazole-3-carboxylic acid phenethyl-amide]	< 20	148		
O=C(NCCn1ccnc1)c1cc(-c2ccco2)on1 [Derivative (33), 5-furan-2-yl-isoxazole-3-carboxylic acid (2-imidazol-1-yl-ethyl)-amide]			580	Emax at 15 µM [1]: 37%
COc1ccccc1-c1cc(C(=O)NCCCn2ccnc2)no1 [Derivative (99), 5-(2-methoxy-phenyl)-isoxazole-3-carboxylic acid (3-imidazol-1-yl-propyl)-amide]			37	Emax at 120 µM [1]: 37%
Cc1cn(CCCNC(=O)c2cc(-c3ccco3)on2)cn1 [Derivative (56), 5-furan-2-yl-isoxazole-3-carboxylic acid [3-(4-methyl-imidazol-1-yl)-propyl]-amide]	< 20			Emax at 15 µM [1]: 58%; Emax at 600 µM ([2]; Con. 600 μM): 650%
O=C(NCCCn1ccnc1)c1noc(-c2ccco2)c1Cc1ccccc1 [Derivative (67), 4-benzyl-5-furan-2-yl-isoxazole-3-carboxylic acid (3-imidazol-1-yl-propyl)-amide]	< 20	< 20		
O=C(NCCn1ncnn1)c1cc(-c2ccc(F)cc2)on1 [Derivative (91), 5-(4-fluoro-phenyl)-isoxazole-3-carboxylic acid (2-tetrazol-2-yl-ethyl)-amide]	103	103		
O=C(NCCCn1ccnn1)c1cc(-c2ccco2)on1 [Derivative (49), 5-furan-2-yl-isoxazole-3-carboxylic acid (3-[1,2,3]triazol-1-yl-propyl)-amide]	< 20	< 20		
Nc1ccc(CCNC(=O)c2cc(-c3ccco3)on2)cc1 [Derivative (26), 5-furan-2-yl-isoxazole-3-carboxylic acid [2-(4-amino-phenyl)-ethyl]-amide]	< 20	< 20		
O=C(NCCc1ccc(F)cc1)c1cc(-c2ccco2)on1 [Derivative (18), 5-furan-2-yl-isoxazole-3-carboxylic acid [2-(4-fluoro-phenyl)-ethyl]-amide]	< 20			Emax at 15 µM ([2]; Con. 15 μM): 149%
CCc1c(C(=O)NCCCn2ccnc2)noc1-c1ccco1 [Derivative (66), 4-ethyl-5-furan-2-yl-isoxazole-3-carboxylic acid (3-imidazol-1-yl-propyl)-amide]	< 20	< 20		
